Experimental data published in US5872141A, “Method of inhibiting cholesterol transport” (priority 1997, dated 1999).
Like-named read-outs stand apart in the source and are kept apart here.

What was measured:
[1] = test system: IEC-6 cells; test: Specific steroid uptake from TDC-DMPC micelles by IEC-6 cells; type: cell-based, rat
Protocol: There was less than 15% variation between duplicates. Under these conditions of incubation the monolayer remained intact.
Referring to FIG. 1, monolayers on 12 well plates of IEC-6 cells were incubated for the indicated times at 37° C. with ^3 H-cholesterol (.circle-solid.), ^14 C-sitosterol (o), or ^3 H-cholesteryl oleate (.tangle-solidup.) in TDC-DMPC micelles as described above. The concentration (75 μM) and specific activity of the steroid was the same in all three conditions. After the desired incubation period, the media was removed, the monolayers were washed, the cells solubilized, and the amount of radioactivity incorporated into the cells was determined and plotted as counts per minute in the cells. […] At 60 minutes the cholesterol content of the cells was 2.7 times the sitosterol. Since sitosterol is closely related to cholesterol both chemically and physically, this indicated a biologically specific uptake. […] Thus, the IEC-6 cells were able to absorb specifically cholesterol from the mixed micelles.

[2] = Uptake of micellar steroid from isolated duodenum into mucosal homogenate; type: in vivo, rat
Protocol: Fifty Wistar male rats were anesthetized with phenobarbital and a celiotomy was performed. The duodenum was isolated with ligatures of umbilical tape at the pylorus and the ligament of Treitz. One ml of a suspension of micelles containing ^3 H-cholesterol and ^14 C-sitosterol together with taurodeoxycholate (TDC) and dimyristic phosphatidyl choline (DMPC) (Safonova et al. 1994) were injected into the isolated duodenum of each rat. Following ten minutes incubation in the duodenum the gut loop was excised. The duodenum was opened lengthwise with iris scissors and mucosal contents were vigorously washed in two changes of 0.15M NaCl, 20 mM Hepes solution (pH 7.5). The mucosa was scraped free with a glass microscope slide and homogenized in a Virtis homogenizer for 5 minutes and 12 strokes in a Potter-Elvehjeim homogenizer as previously described (Conrad et al. 1993). […] Membranes were collected by centrifugation at 20,000×g for 20 minutes. Membrane proteins were extracted overnight at 4° C. in 1% Triton X 100 20 mM Hepes pH 7.5. The suspension was centrifuged at 20,000×g for 20 minutes. The solubilized material (70 ml) contained 70% of the radiolabeled cholesterol. The solubilized material was applied to a 240 ml column of DE-92 (Whatmann) equilibrated in 20 mM Hepes, 1% Triton X 100 pH 7.5 and eluted with a saline gradient. […]

[3] = test system: alkaline phosphatase; conditions: levamisole 58 mM, pH 8.5, 30 minutes at 37° C., IEC-6 homogenate, FIG. 2
Protocol: An incubation mixture of […] was prepared containing 0.1 ml of 500 mM Hepes pH 8.5, 25 mM MgCl2, 2.5 μM ZnCl2, and 0.5 ml of homogenate [1.0 mg/ml protein as determined by BCA method (Pierce, Rockford, Ill.)]. The indicated amount of p-nitrophenyl phosphate was added and the incubation allowed to proceed for 30 minutes at 37° C. To some of the tubes levamisole (58 mM) was added. After the incubation the absorption at 412 nm was determined.

[4] = test system: IEC-6 cells; conditions: 32 mM levamisole, 60 minutes at 37° C., 20-60% sucrose gradient, FIG. 5
Protocol: Two petri dishes (7.5 cm) with monolayers of IEC-6 cells were grown to confluence and used for each experiment. Each plate was washed in PBS and then incubated with 3 ml of PBS containing 120 μl of cholesterol micelles. In two parallel petri dishes an identical incubation was performed but with the addition of 32 mM levamisole. After 60 minutes incubation the dishes were chilled, washed four times with cold PBS and then harvested by scraping the dishes into 8 ml of 10 mM Hepes, 10 mM NaCl pH 7.4. The cells were homogenized using a Tissue-Tearor (Biospec Products, Bartlettsville, Okla.) at full speed for 30 seconds×3. The homogenate was layered on top of a 26 ml linear sucrose gradient from 20-60% (w/w). Centrifugation was performed over 18-20 hours at 19,000 rpm with a S-20 rotor in a Sorvall RC28S (DuPont, Wilmington, Del.) centrifuge. The tubes were punched from the bottom and 1 ml fractions collected. Standard methods were used to identify the membrane fractions (Storrie & Madden 1990) utilizing p-nitrophenyl-sugars and spectrophotometric analysis.
Referring to FIG. 4, IEC-6 cells were incubated with ^3 H-cholesterol micelles for 60 minutes at 37° C., and then washed, homogenized, and separated on 20-60% sucrose gradients. The gradients were centrifuged to equilibrium. The location of various membrane fragments was determined by standard enzymatic methods (Storrie & Madden 1990). […]

[5] = test system: IEC-6 cells; conditions: increasing concentrations of levamisole, 30 minutes at 37° C., FIG. 3
Protocol: Radioisotopes were obtained from NEN (Billerca, Mass.) and other chemicals from Sigma (St. Louis, Mo.). ^3 H-cholesterol micelles were prepared from dimyristic phosphatidyl choline (DMPC) and taurodeoxycholate (TDC) as described by others (Safanova et al. 1994). The final solution contained 2.2×10^6 cpm/ml, 0.1 μM cholesterol, 60 mM DMPC and 6.5 mM TDC. Micelles with ^14 C-sitosterol or ^3 H-cholesteryl oleate were similarly prepared using the appropriate steroid and had the same specific activity. IEC-6 cells (Quaroni et al. 1979) obtained from the American Type Culture Collection (12301 Parklawn Drive, Rockville, Md.) were grown to confluence on 12-well Corning tissue culture plates. The media was removed and the monolayers were washed with phosphate buffered saline containing calcium, magnesium, and glucose (PBS). One ml of PBS was added to each well and 40 μl of the micellar solution (for a final steroid concentration of 4 nM). After incubation at 37° C., the plates were chilled and the wells washed four times in cold PBS. Water (0.5 ml) was added, and the plates were sonicated for 15 minutes (Branson model B-220, Shelton, Conn.) and then washed in an additional 0.5 ml of water. The water lysates were combined and counted in Ready-Safe (Beckman, Fullerton, Calif.) scintillation fluid. There was less than 15% variation between duplicates. […]

CCCCCCCC/C=C\CCCCCCCC(=O)O[C@H]1CC[C@@]2(C)C(=CC[C@H]3[C@@H]4CC[C@H]([C@H](C)CCCC(C)C)[C@@]4(C)CC[C@@H]32)C1 [Cholesterol ester, cholesteryl oleate]
uptake by IEC-6 cells [1]: poorly absorbed

CC(C)CCC[C@@H](C)[C@H]1CC[C@H]2[C@@H]3CC=C4C[C@@H](O)CC[C@]4(C)[C@H]3CC[C@]12C [cholesterol]
total uptake into the homogenate, % of added steroid ([2]; rat, in vivo, 10 min): 16%
uptake by IEC-6 cells [1]: linear for at least an hour

c1ccc([C@H]2CN3CCSC3=N2)cc1 [levamisole, 2,3,5,6-tetrahydro-6-phenylimidazo-[2,1-b]thiazole]
alkaline phosphatase activity inhibition (mode) [3]: competitively inhibited
subcellular location of 3H-cholesterol label [4]: majority of the label was found in the plasma membrane fraction (P)
effect of increasing drug concentration on cholesterol uptake [5]: did not result in complete inhibition of uptake
cholesterol uptake inhibited ([5]; maximal inhibition): Approximately 50%

CC[C@H](CC[C@@H](C)[C@H]1CC[C@H]2[C@@H]3CC=C4C[C@@H](O)CC[C@]4(C)[C@H]3CC[C@]12C)C(C)C [sitosterol]
total uptake into the homogenate, % of added steroid ([2]; rat isolated duodenum, micelles with TDC and DMPC, ten minutes incubation): 2%
uptake by IEC-6 cells ([1]; 37° C., TDC-DMPC micelles, FIG. 1, cholesterol ester without added pancreatic cholesterol esterase): incorporated much less efficiently
